Biological target: T1, aryl hydrocarbon receptor (Rattus norvegicus, UniProt P41738, Q794H)
T1 construct: The SD-line rat AhR gene-coding region was amplified from the reverse-transcribed sample by means of PCR; V5-His (C-terminal tag of vector pcDNA4/V5-His B); expressed in transfected cells; host or cells: mouse neuroblastoma Neuro2a, transient transfection with LIPOFECTAMINE 2000
T1 sequence (P41738 10-853 Q794H): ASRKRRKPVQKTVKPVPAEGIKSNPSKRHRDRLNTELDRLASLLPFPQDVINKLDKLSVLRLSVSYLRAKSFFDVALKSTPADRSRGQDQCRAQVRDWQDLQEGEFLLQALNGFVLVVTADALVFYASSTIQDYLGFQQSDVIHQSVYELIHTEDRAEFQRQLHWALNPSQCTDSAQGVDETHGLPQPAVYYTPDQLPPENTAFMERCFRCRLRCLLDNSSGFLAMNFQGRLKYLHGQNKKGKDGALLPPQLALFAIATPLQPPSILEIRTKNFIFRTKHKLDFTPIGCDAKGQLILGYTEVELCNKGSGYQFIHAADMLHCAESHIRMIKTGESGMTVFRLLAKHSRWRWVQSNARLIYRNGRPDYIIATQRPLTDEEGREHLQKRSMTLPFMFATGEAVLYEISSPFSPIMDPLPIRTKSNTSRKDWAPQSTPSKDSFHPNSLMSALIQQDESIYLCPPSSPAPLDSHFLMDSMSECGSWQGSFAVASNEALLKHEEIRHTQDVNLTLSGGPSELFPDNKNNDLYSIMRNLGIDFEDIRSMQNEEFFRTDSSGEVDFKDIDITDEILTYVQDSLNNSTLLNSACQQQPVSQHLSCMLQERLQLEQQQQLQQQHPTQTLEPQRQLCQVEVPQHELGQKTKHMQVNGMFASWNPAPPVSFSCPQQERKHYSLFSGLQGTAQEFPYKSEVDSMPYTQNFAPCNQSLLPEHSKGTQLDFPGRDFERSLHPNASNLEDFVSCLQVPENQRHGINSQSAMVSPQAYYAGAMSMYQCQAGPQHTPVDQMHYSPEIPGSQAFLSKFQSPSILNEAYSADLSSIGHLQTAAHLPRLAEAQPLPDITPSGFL
Test: Reporter gene (luciferase) assay in Neuro2a cells carrying PGV-THp25 (2.5 kbp TH transcriptional regulatory region) and pcDNA4-rAhR
Format: cell-based, SD-line rat
Conditions: PGV-pTH25-introduced Neuro2a; for expression amount of the reporter gene (increase versus unexposed): 30 hours
Text: In this Example, the PGV-THp25 prepared in Example 2 was used. Neuro2a was used as the cell.
Two kinds of vectors, pcDNA4-rAhR (Example 1) and pcDNA4/V5-His/lacZ (Invitrogen), were introduced into Neuro2a, together with PGV-THp25. pcDNA4-rAhR was introduced for constitutive expression of the SD-line rat AhR gene (SEQ ID No: 10) in the cell, and pcDNA4/V5-His/lacZ was introduced for normalization of the vector transfection efficiency.
The vectors were introduced into the cell by using LIPOFECTAMINE 2000 (Invitrogen). The cell was cultured on a 24-well plate, and the operation was performed according to the manual of Invitrogen. A total of 0.8 μg of vectors (0.4 μg of PGV-THp25, 0.2 μg of pcDNA4-rAhR, and 0.2 μg of pcDNA4/V5-His/lacZ) suspended in 50 μl of OPTI-MEM medium and 2 μl of LIPOFECTAMINE 2000 suspended in 50 μl of OPTI-MEM medium were mixed, and incubated at room temperature for 20 minutes to form nucleic acid/LIPOFECTAMINE 2000 complex. The obtained suspension containing the complex was added to Neuro2a cell culture, which has been previously cultured overnight in 500 μl of DF1:1 medium (containing 10% fetal calf serum) (0.8×10^5 cells were seeded on previous day), to allow incorporation of the vectors into the cell. The cell was cultured additionally for 24 hours after the transfection, for the purpose of improvement in vector incorporation efficiency and expression of the proteins derived from the introduced vectors.
As the test substance, a solution of dioxin (2,3,7,8-tetrachlorodibenzo-p-dioxine, TCDD) in dimethylsulfoxide (manufactured by Kanto Kagaku Co. Inc.) was used. After the transfection and the additional incubation for 24 hours, the medium was replaced with a fresh medium containing TCDD (at 0, 0.01, 1, or 100 nM), and the cell was cultured additionally for 30 hours. After 30 hours, the medium was removed from the 24-well plate, and the cell was washed with phosphate buffer twice. 100 μl of a protein extraction solution (manufactured by TOYO B-NET) was added to each well, and the cell suspension was stirred gently at room temperature for 15 minutes and then frozen at −80° C. The frozen solution was thawed at room temperature, and the resulting solution was recovered in a tube and diluted ten times with a protein extraction reagent containing 1 mg/ml bovine serum albumin. Luciferase and β-galactosidase activities in the diluted solution were measured, and the expression amount of the reporter gene was calculated as a relative luminescence intensity per 1 ng of β-galactosidase per second (RLU/sec/ng β-galactosidase).

For `Clc1cc2c(cc1Cl)Oc1cc(Cl)c(Cl)cc1O2` [TCDD, 2,3,7,8-tetrachlorodibenzo-p-dioxine], the “expression amount of the reporter gene (increase versus unexposed)” value (0.01 nM TCDD) was “approximately 1.2 times”, the “expression amount of the reporter gene (increase versus unexposed)” value (1 nM TCDD) was “approximately 1.6 times” and the “expression amount of the reporter gene (increase versus unexposed)” value (100 nM TCDD) was “approximately 1.8 times”. The “expression amount of the reporter gene, dose dependence” value (0.01 to 100 nM TCDD) was “increased dose-dependently”.
